Laboratory results published in publication PMC8539612, “Enzymatic Synthesis of Novel Vitexin Glucosides” (Molecules, 2021).
Values after ≈ are worked out from the molar mass of the structure shown.

Experiments:
[1] = Determination of aqueous solubility (vortex 1 h at 25 °C, centrifugation, filtration, HPLC); format: physicochemical; settings: for solubility at 1 h: thermodynamic from solid; for Aqueous solubility compared with vitexin: at different pH
Procedure: HPLC was performed with an Agilent® 1100 series HPLC system (Santa Clara, CA, USA) equipped with a gradient pump (Waters 600, Waters, Milford, MA, USA). The stationary phase was a C18 column (Sharpsil H-C18, 5 μm, 4.6 i.d. × 250 mm, Sharpsil, Bei-jing, China), and the mobile phase was 1% acetic acid in water (A) and methanol (B). The elution condition was a linear gradient from 0 min with 40% B to 20 min with 70% B; an isocratic elution from 20 min to 25 min with 70% B; a linear gradient from 25 min with 70% B to 28 min with 40% B; and an isocratic elution from 28 min to 35 min with 40% B. All elutions were performed at a flow rate of 1 mL/min. The sample volume was 10 µL. The detection condition was set at 254 nm.
The aqueous solubility of vitexin and its glucoside derivatives was examined as follows. Each compound was vortexed in double-deionized H2O, PB at pH 6, or pH 8, for 1 h at 25 °C. The mixture was centrifuged at 10,000× g for 30 min at 25 °C. The supernatant was filtered through a 0.2 µm nylon membrane, mixed with an equal volume of methanol, and analyzed by HPLC. The concentration of the tested compounds was determined on the basis of their peak areas, using calibration curves prepared by HPLC analyses of authentic samples.

[2] = set-up: method as in PMID 32292045; settings: poor bioavailability; cited from earlier work
[3] = PB (buffer), aqueous buffer, PB at pH 6, 25 °C
[4] = PB (buffer), aqueous buffer, PB at pH 8, 25 °C
[5] = double-deionized water, water, Deionized H2O at pH 7, 25 °C

| solubility at 1 h [1, 3] [µg/mL] | solubility at 1 h [1, 4] [µg/mL] | Fold increase in aqueous solubility relative to vitexin in deionized H2O (normalized to 1) ([1]; PB at pH 6) | Fold increase in aqueous solubility relative to vitexin in deionized H2O (normalized to 1) ([1]; PB at pH 8) | solubility at 1 h [1, 5] [µg/mL] | Aqueous solubility compared with vitexin [1] | SMILES | Fold increase in aqueous solubility relative to vitexin in deionized H2O (normalized to 1) ([1]; Deionized H2O at pH 7) | Absorption in the gastrointestinal tract [2] |
| --- | --- | --- | --- | --- | --- | --- | --- | --- |
| 943 ± 212 (≈ 1590 µM) | 1800 ± 229 (≈ 3030 µM) | 25.3 | 48.4 | 941 ± 68.7 (≈ 1580 µM) | higher than that of vitexin | O=c1cc(-c2ccc(OC3OC(CO)C(O)C(O)C3O)cc2)oc2c(C3OC(CO)C(O)C(O)C3O)c(O)cc(O)c12 (stereo not drawn) [Vitexin-4′-O-β-glucoside (1), vitexin-4′-O-β-glucoside] | 25.3 | – |
| 444 ± 45 (≈ 747 µM) | 767 ± 21.6 (≈ 1290 µM) | 11.9 | 20.6 | 735 ± 51.7 (≈ 1240 µM) | higher than that of vitexin | O=c1cc(-c2ccc(O)cc2)oc2c(C3OC(CO)C(O)C(O)C3O)c(O)cc(OC3OC(CO)C(O)C(O)C3O)c12 (stereo not drawn) [Vitexin-5-O-β-glucoside (2), vitexin-5-O-β-glucoside] | – | – |

| SMILES | solubility at 1 h [1, 3] [µg/mL] | solubility at 1 h [1, 4] [µg/mL] | Fold increase in aqueous solubility relative to vitexin in deionized H2O (normalized to 1) ([1]; PB at pH 6) | Fold increase in aqueous solubility relative to vitexin in deionized H2O (normalized to 1) ([1]; PB at pH 8) | solubility at 1 h [1, 5] [µg/mL] | Aqueous solubility compared with vitexin [1] | Fold increase in aqueous solubility relative to vitexin in deionized H2O (normalized to 1) ([1]; Deionized H2O at pH 7) | Absorption in the gastrointestinal tract [2] |
| --- | --- | --- | --- | --- | --- | --- | --- | --- |
| O=c1cc(-c2ccc(O)cc2)oc2c([C@@H]3O[C@H](CO)[C@@H](O)[C@H](O)[C@H]3O)c(O)cc(O)c12 [Vitexin, apigenin-8-C-glucoside] | 7.1 ± 1.2 (≈ 16.4 µM) | 157 ± 3.1 (≈ 364 µM) | 0.2 | 4.2 | 37.2 ± 2.8 (≈ 86 µM) | – | 1 | approximately 5% |
